{
  "source": "patent US12527849B2",
  "about": "“Apparatus for determining administration form of a composition of an engineered virus-based nanoparticle for a treatment of an autoimmune condition” (Diamante Srl, priority 2021, dated 2026)",
  "key": {"IL-1β": {"tested_on": "IL-1β", "test": "Pro-inflammatory cytokines in sera of CIA Collagen mice (ELISA, day 58): IL-1β", "format": "in vivo", "conditions": "Dexamethasone oral 1 mg/kg, 20 times between day 28 and 57", "method": "(§1) Critical administration 124 disclosed herein is further described below. Q5D represents administration 5 days a part. TBSV·pLIp1 and wt TBSV shown in Table 1 may include liquid form that are not sterile and stored in −20° C. TBSV·pLIp1 may be given at the dose of 50 μG/100 μL Male DBA/1J mice (8 weeks; Envigo, Italy) may be used for these studies. Mice may be housed in individual cages (two for each group) and maintained under a 12:12 light-dark cycle at 21° C.±1° C. and 50%±5% humidity. The animals may be acclimated to their environment for 1 week and had ad libitum access to tap water and standard rodent diet. All animal experiments may be complied with regulations in Italy (D.M. 116192), Europe (O.J of E.C. L 358/112/18/1986), and the United States (Animal Welfare Assurance Number A5594-01, Department of Health and Human Services, USA). […] Arthritis was assessed by using qualitative severity score system and hind paw volume (mL) measured by a plethysmometer on day 20, 22, 24, 26, 28, 30, 32, 34, 36, 38, 40, 42, 44, 46 48, 50, 52, 54, 56 and 58. Body weight was recorded on day 0, 6, 13, 16, 18, 20, 22, 24, 26, 28, 30, 32, 34, 36, 38, 40, 42, 44, 46, 50, 52, 54, 56 and 58. […]"}, "MCP-1": {"tested_on": "MCP-1", "test": "Pro-inflammatory cytokines in sera of CIA Collagen mice (ELISA, day 58): MCP-1", "format": "in vivo", "conditions": "Dexamethasone oral 1 mg/kg, 20 times between day 28 and 57", "method": "as §1"}},
  "data": [
    {"smiles": "C[C@@H]1C[C@H]2[C@@H]3CCC4=CC(=O)C=C[C@]4(C)[C@@]3(F)[C@@H](O)C[C@]2(C)[C@@]1(O)C(=O)CO", "note": "[Dexamethasone, dexamethasone]", "values": [
      {"measurement": "IL-1β, % of reduction vs CIA Collagen", "setting": "IL-1β", "value": 22.74, "unit": "%"},
      {"measurement": "MCP-1, % of reduction vs CIA Collagen", "setting": "MCP-1", "value": 30.57, "unit": "%"}
    ]}
  ]
}
